Measurements: publication PMC9391280, “A High-Throughput Fluorescent Turn-On Assay for Inhibitors of DHHC Family Proteins” (ACS Chemical Biology, 2022)
Read-outs that look alike come from different tables or passages of the source.

Tests used:
[1] = molecular target: T1, zDHHC20 (Homo sapiens, UniProt Q5W0Z9); experiment: PTP fluorogenic turn-on assay with purified zDHHC20; assay type: biochemical
T1 sequence (Q5W0Z9 1-365): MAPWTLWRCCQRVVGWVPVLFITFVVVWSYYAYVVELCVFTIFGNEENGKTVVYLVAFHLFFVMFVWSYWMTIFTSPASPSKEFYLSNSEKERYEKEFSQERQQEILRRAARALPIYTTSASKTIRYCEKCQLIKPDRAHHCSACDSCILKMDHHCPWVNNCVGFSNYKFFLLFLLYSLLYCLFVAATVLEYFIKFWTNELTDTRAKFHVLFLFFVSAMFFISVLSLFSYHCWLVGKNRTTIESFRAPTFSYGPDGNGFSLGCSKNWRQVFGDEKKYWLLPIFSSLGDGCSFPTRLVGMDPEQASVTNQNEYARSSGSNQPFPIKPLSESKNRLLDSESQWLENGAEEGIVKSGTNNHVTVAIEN

[2] = molecular target: T2, zDHHC2 (Homo sapiens, UniProt Q9UIJ5); experiment: PTP fluorogenic assay, single concentration […]; assay type: biochemical
T2 sequence (Q9UIJ5 1-367): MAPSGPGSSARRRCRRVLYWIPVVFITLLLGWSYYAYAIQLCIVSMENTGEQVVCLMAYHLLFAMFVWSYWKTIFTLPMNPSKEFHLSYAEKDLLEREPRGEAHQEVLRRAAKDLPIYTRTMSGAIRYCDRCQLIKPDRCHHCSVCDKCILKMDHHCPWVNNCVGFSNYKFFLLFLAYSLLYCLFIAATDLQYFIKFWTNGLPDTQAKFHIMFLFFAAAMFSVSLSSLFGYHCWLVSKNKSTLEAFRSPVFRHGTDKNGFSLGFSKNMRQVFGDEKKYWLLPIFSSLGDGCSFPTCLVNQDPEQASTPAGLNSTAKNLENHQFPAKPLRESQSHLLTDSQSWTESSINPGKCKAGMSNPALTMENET

[3] = molecular target: T3, zDHHC3 (Homo sapiens, UniProt Q9NYG2); experiment: PTP fluorogenic assay, single concentration […]; assay type: biochemical
T3 sequence (Q9NYG2 1-299): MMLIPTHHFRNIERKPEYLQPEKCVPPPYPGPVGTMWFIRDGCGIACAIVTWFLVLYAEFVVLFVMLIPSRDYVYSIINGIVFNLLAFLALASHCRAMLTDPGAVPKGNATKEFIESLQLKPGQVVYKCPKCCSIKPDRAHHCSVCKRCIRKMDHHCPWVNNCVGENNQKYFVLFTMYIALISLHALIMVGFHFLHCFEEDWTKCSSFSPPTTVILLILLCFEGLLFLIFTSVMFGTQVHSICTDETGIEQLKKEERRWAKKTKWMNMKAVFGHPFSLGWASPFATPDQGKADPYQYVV

[4] = molecular target: T2, zDHHC2; experiment: fluorogenic probe uncaging by purified enzyme ([…] probe); assay type: biochemical
[5] = molecular target: T3, zDHHC3; experiment: as above; assay type: biochemical
[6] = substrate: CCCCCCCCCCCCCCCC(=O)SCCN(C)C(=O)Oc1ccc2c(c1)Oc1cc(N3CCN(C(=O)CCCC(=O)O)CC3)ccc1C21OC(=O)c2ccccc21; experiment: purified protein; conditions: palmitoyl-CoA mimetic; turnover depends on the key catalytic cysteine of the DHHC motif

C=CC(=O)N(CC#N)CCCCCCCCCCCCCC [CMA, cyanomyracrylamide]
IC50 ([1]; read-out: IC50): 463 ± 70 nM

CCCCCCCCCCCCCCC(Br)C(=O)O (stereo not shown) [2BP, 2-Bromopalmitate]
IC50 [1]: 2020 ± 290 nM | PTP fluorogenic assay, single concentration 20 μM [2]: both CMA and 2BP were able to inhibit zDHHC2, zDHHC3, and zDHHC20 | PTP fluorogenic assay, single concentration 20 μM [3]: both CMA and 2BP were able to inhibit zDHHC2, zDHHC3, and zDHHC20

CCCCCCCCCCCCCCCC(=O)SCCN(C)C(=O)Oc1ccc2c(c1)Oc1cc(N3CCN(C(=O)CCN4CCOCC4)CC3)ccc1C21OC(=O)c2ccccc21 (stereo not shown) [PTP-3]
fluorogenic probe uncaging by purified enzyme (4 μM probe) [4]: PTP-3, the morpholino compound, was the best substrate for these two DHHCs | fluorogenic probe uncaging by purified enzyme (4 μM probe) [5]: PTP-3, the morpholino compound, was the best substrate for these two DHHCs

B1: zDHHC20 (Homo sapiens) (protein)
chain: MAPWTLWRCCQRVVGWVPVLFITFVVVWSYYAYVVELCVFTIFGNEENGKTVVYLVAFHLFFVMFVWSYWMTIFTSPASPSKEFYLSNSEKERYEKEFSQERQQEILRRAARALPIYTTSASKTIRYCEKCQLIKPDRAHHCSACDSCILKMDHHCPWVNNCVGFSNYKFFLLFLLYSLLYCLFVAATVLEYFIKFWTNELTDTRAKFHVLFLFFVSAMFFISVLSLFSYHCWLVGKNRTTIESFRAPTFSYGPDGNGFSLGCSKNWRQVFGDEKKYWLLPIFSSLGDGCSFPTRLVGMDPEQASVTNQNEYARSSGSNQPFPIKPLSESKNRLLDSESQWLENGAEEGIVKSGTNNHVTVAIEN
Km [6]: 24.3 µM
